The source of these data is BindingDB's records for doi:10.1021/jm000317+ (Virginia Commonwealth University, 2001).

Each structure is given as a SMILES string. Bounds are passed on as bounds.

A short description of the assay: Ki value determined against Sigma opioid receptor type 2 using [3H]DTG(5 nM) with 1uM dextrallorphan to mask sigma1 binding.
As to `C=CCCN1CC[C@]2(C)c3cc(O)ccc3CC1C2C` (some centres not stated) [3-But-3-enyl-6,11-dimethyl-1,2,3,4,5,6-hexahydro-2,6-methano-benzo[d]azocin-8-ol], the Ki – broadly, the dissociation constant of the complex between target and ligand, obtained from inhibition or displacement – amounted to 7.6 µM.

In turn, `CC1C2Cc3ccc(O)cc3[C@@]1(C)CCN2CCCCCCC#N` (some centres not stated) [7-(8-Hydroxy-6,11-dimethyl-1,2,5,6-tetrahydro-4H-2,6-methano-benzo[d]azocin-3-yl)-heptanenitrile] displayed a Ki of 1.9 µM.

`C#CCCN1CC[C@]2(C)c3cc(O)ccc3CC1C2C` (some centres not stated) [3-But-3-ynyl-6,11-dimethyl-1,2,3,4,5,6-hexahydro-2,6-methano-benzo[d]azocin-8-ol] displayed a Ki of 15 µM.

Consider `C=CCN1CC[C@]2(C)c3cc(O)ccc3CC1C2C` (some centres not stated) [3-Allyl-6,11-dimethyl-1,2,3,4,5,6-hexahydro-2,6-methano-benzo[d]azocin-8-ol], for which the inhibition constant Ki stood at 27 µM.

Molecule `C=CCCCCN1CC[C@]2(C)c3cc(O)ccc3CC1C2C` (some centres not stated) [3-Hex-5-enyl-6,11-dimethyl-1,2,3,4,5,6-hexahydro-2,6-methano-benzo[d]azocin-8-ol] registered a Ki of 0.76 µM.

`CC1C2Cc3ccc(O)cc3[C@@]1(C)CCN2CCCCCC#N` (some centres not stated) [6-(8-Hydroxy-6,11-dimethyl-1,2,5,6-tetrahydro-4H-2,6-methano-benzo[d]azocin-3-yl)-hexanenitrile] returned an inhibition constant Ki of 5.7 µM. This Ki is about 7.5-fold higher than that of the molecule before.

Regarding `CC1C2Cc3ccc(O)cc3[C@@]1(C)CCN2CCCCC#N` (some centres not stated) [5-(8-Hydroxy-6,11-dimethyl-1,2,5,6-tetrahydro-4H-2,6-methano-benzo[d]azocin-3-yl)-pentanenitrile], the Ki was found to be 13 µM.

In the case of `CC1C2Cc3ccc(O)cc3[C@@]1(C)CCN2CCCC#N` (some centres not stated) [4-(8-Hydroxy-6,11-dimethyl-1,2,5,6-tetrahydro-4H-2,6-methano-benzo[d]azocin-3-yl)-butyronitrile], the Ki is 34 µM.

Turning to `CC1C2Cc3ccc(O)cc3[C@@]1(C)CCN2CCC#N` (some centres not stated) [3-(8-Hydroxy-6,11-dimethyl-1,2,5,6-tetrahydro-4H-2,6-methano-benzo[d]azocin-3-yl)-propionitrile], the inhibition constant (Ki) is over 100 µM.

`C#CCCCN1CC[C@]2(C)c3cc(O)ccc3CC1C2C` (some centres not stated) [6,11-Dimethyl-3-pent-4-ynyl-1,2,3,4,5,6-hexahydro-2,6-methano-benzo[d]azocin-8-ol]: the Ki stood at 3.5 µM.

With `C=CCCCN1CC[C@]2(C)c3cc(O)ccc3CC1C2C` (some centres not stated) [6,11-Dimethyl-3-pent-4-enyl-1,2,3,4,5,6-hexahydro-2,6-methano-benzo[d]azocin-8-ol], the affinity corresponds to a Ki of 2.5 µM. This Ki and that of the molecule before are within 1.5-fold of each other.

In turn, `CC1C2Cc3ccc(O)cc3[C@@]1(C)CCN2CC#N` (some centres not stated) [(8-Hydroxy-6,11-dimethyl-1,2,5,6-tetrahydro-4H-2,6-methano-benzo[d]azocin-3-yl)-acetonitrile] had a Ki of 93 µM.
